Columns and labels:
Assay in all cases: relative viability (nuclei count vs DMSO), 5 days (fraction); higher = more cells survive
NCI-H2009 = test system: NCI-H2009
In short: (§1)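 Medians of duplicate plates are given as relative viability. That measure is the nuclei count in treated wells divided by the count in vehicle wells. Counts were taken on 4× images of lung cancer cell lines in 1536-well plates, 5 days after pin-tool dosing the day after seeding with one drug alone or a fixed anchor-drug dose plus five library-drug doses (not always all listed) in √10 steps.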

NCI-H1395 = test system: NCI-H1395
In short: as §1

BEN = test system: BEN
In short: as §1

NCI-H2228 = test system: NCI-H2228
In short: as §1

201T = test system: 201T
In short: as §1

LU99A = test system: LU99A
In short: as §1

NCI-H650 = test system: NCI-H650
In short: as §1

HCC-15 = test system: HCC-15
In short: as §1

NCI-H2126 = test system: NCI-H2126
In short: as §1

EPLC-272H = test system: EPLC-272H
In short: as §1

LCLC-97TM1 = test system: LCLC-97TM1
In short: as §1

NCI-H838 = test system: NCI-H838
In short: as §1

NCI-H322M = test system: NCI-H322M
In short: as §1

HCC-78 = test system: HCC-78
In short: as §1

NCI-H661 = test system: NCI-H661
In short: as §1

NCI-H23 = test system: NCI-H23
In short: as §1

NCI-H647 = test system: NCI-H647
In short: as §1

NCI-H1355 = test system: NCI-H1355
In short: as §1

NCI-H2085 = test system: NCI-H2085
In short: as §1

NCI-H460 = test system: NCI-H460
In short: as §1

NCI-H2342 = test system: NCI-H2342
In short: as §1

NCI-H2405 = test system: NCI-H2405
In short: as §1

PC-14 = test system: PC-14
In short: as §1

Structure (SMILES): Cc1csc(=NC2CCCCC2)n1/N=C/c1ccc(O)c(O)c1O [MIM1] + COc1cc2c(Oc3ccc(NC(=O)C4(C(=O)Nc5ccc(F)cc5)CC4)cc3F)ccnc2cc1OCCCN1CCOCC1 [Foretinib] (partner 0.25 µM)
- relative viability (NCI-H2009; first compound 0.2 µM): 1.19
- relative viability (NCI-H2009; first compound 0.6325 µM): 1.25
- relative viability (NCI-H2009; first compound 2 µM): 1.27
- relative viability (NCI-H2009; first compound 6.325 µM): 1.09
- relative viability (NCI-H2009; first compound 20 µM): 0.566
- relative viability (NCI-H1395; first compound 0.2 µM): 1.03
- relative viability (NCI-H1395; first compound 0.6325 µM): 0.975
- relative viability (NCI-H1395; first compound 2 µM): 0.905
- relative viability (NCI-H1395; first compound 6.325 µM): 0.917
- relative viability (NCI-H1395; first compound 20 µM): 0.388
- relative viability (BEN; first compound 0.2 µM): 0.705
- relative viability (BEN; first compound 0.6325 µM): 0.531
- relative viability (BEN; first compound 2 µM): 0.719
- relative viability (BEN; first compound 6.325 µM): 0.551
- relative viability (BEN; first compound 20 µM): 0.294
- relative viability (NCI-H2228; first compound 0.2 µM): 1.06
- relative viability (NCI-H2228; first compound 0.6325 µM): 0.951
- relative viability (NCI-H2228; first compound 2 µM): 0.853
- relative viability (NCI-H2228; first compound 6.325 µM): 0.583
- relative viability (NCI-H2228; first compound 20 µM): 0.247
- relative viability (201T; first compound 0.2 µM): 1.11
- relative viability (201T; first compound 2 µM): 0.993
- relative viability (201T; first compound 6.325 µM): 0.709
- relative viability (201T; first compound 20 µM): 0.483
- relative viability (LU99A; first compound 0.2 µM): 0.808
- relative viability (LU99A; first compound 0.6325 µM): 0.775
- relative viability (LU99A; first compound 2 µM): 0.751
- relative viability (LU99A; first compound 6.325 µM): 0.743
- relative viability (LU99A; first compound 20 µM): 0.407
- relative viability (NCI-H650; first compound 0.2 µM): 1.05
- relative viability (NCI-H650; first compound 0.6325 µM): 1.05
- relative viability (NCI-H650; first compound 2 µM): 1.02
- relative viability (NCI-H650; first compound 6.325 µM): 0.924
- relative viability (NCI-H650; first compound 20 µM): 0.412
- relative viability (HCC-15; first compound 0.2 µM): 1.09
- relative viability (HCC-15; first compound 2 µM): 1.06
- relative viability (HCC-15; first compound 6.325 µM): 0.764
- relative viability (HCC-15; first compound 20 µM): 0.157
- relative viability (NCI-H2126; first compound 0.2 µM): 1.14
- relative viability (NCI-H2126; first compound 0.6325 µM): 1.17
- relative viability (NCI-H2126; first compound 2 µM): 1.35
- relative viability (NCI-H2126; first compound 6.325 µM): 1.12
- relative viability (NCI-H2126; first compound 20 µM): 0.491
- relative viability (EPLC-272H; first compound 0.2 µM): 0.779
- relative viability (EPLC-272H; first compound 0.6325 µM): 0.724
- relative viability (EPLC-272H; first compound 2 µM): 0.622
- relative viability (EPLC-272H; first compound 6.325 µM): 0.159
- relative viability (EPLC-272H; first compound 20 µM): 0.12
- relative viability (LCLC-97TM1; first compound 0.2 µM): 0.92
- relative viability (LCLC-97TM1; first compound 0.6325 µM): 1.08
- relative viability (LCLC-97TM1; first compound 2 µM): 0.888
- relative viability (LCLC-97TM1; first compound 6.325 µM): 0.611
- relative viability (LCLC-97TM1; first compound 20 µM): 0.259
- relative viability (NCI-H838; first compound 0.2 µM): 1.01
- relative viability (NCI-H838; first compound 0.6325 µM): 1.01
- relative viability (NCI-H838; first compound 2 µM): 0.761
- relative viability (NCI-H838; first compound 6.325 µM): 0.853
- relative viability (NCI-H838; first compound 20 µM): 0.657
- relative viability (NCI-H322M; first compound 0.2 µM): 0.986
- relative viability (NCI-H322M; first compound 0.6325 µM): 0.895
- relative viability (NCI-H322M; first compound 2 µM): 0.867
- relative viability (NCI-H322M; first compound 6.325 µM): 0.85
- relative viability (NCI-H322M; first compound 20 µM): 0.548
- relative viability (HCC-78; first compound 0.2 µM): 0.558
- relative viability (HCC-78; first compound 0.6325 µM): 0.563
- relative viability (HCC-78; first compound 2 µM): 0.539
- relative viability (HCC-78; first compound 6.325 µM): 0.553
- relative viability (HCC-78; first compound 20 µM): 0.911
- relative viability (NCI-H661; first compound 0.2 µM): 0.933
- relative viability (NCI-H661; first compound 0.6325 µM): 1
- relative viability (NCI-H661; first compound 2 µM): 0.939
- relative viability (NCI-H661; first compound 6.325 µM): 0.75
- relative viability (NCI-H661; first compound 20 µM): 0.355
- relative viability (NCI-H23; first compound 0.2 µM): 1.07
- relative viability (NCI-H23; first compound 2 µM): 0.791
- relative viability (NCI-H23; first compound 6.325 µM): 0.812
- relative viability (NCI-H23; first compound 20 µM): 0.263
- relative viability (NCI-H647; first compound 0.2 µM): 1.16
- relative viability (NCI-H647; first compound 0.6325 µM): 1.12
- relative viability (NCI-H647; first compound 6.325 µM): 1
- relative viability (NCI-H647; first compound 20 µM): 0.703
- relative viability (NCI-H1355; first compound 0.2 µM): 0.911
- relative viability (NCI-H1355; first compound 0.6325 µM): 0.885
- relative viability (NCI-H1355; first compound 2 µM): 0.976
- relative viability (NCI-H1355; first compound 6.325 µM): 0.87
- relative viability (NCI-H1355; first compound 20 µM): 0.629
- relative viability (NCI-H2085; first compound 0.2 µM): 0.895
- relative viability (NCI-H2085; first compound 0.6325 µM): 1.11
- relative viability (NCI-H2085; first compound 2 µM): 1.13
- relative viability (NCI-H2085; first compound 6.325 µM): 0.935
- relative viability (NCI-H2085; first compound 20 µM): 0.843
- relative viability (NCI-H460; first compound 0.2 µM): 0.954
- relative viability (NCI-H460; first compound 0.6325 µM): 0.987
- relative viability (NCI-H460; first compound 2 µM): 0.862
- relative viability (NCI-H460; first compound 6.325 µM): 0.493
- relative viability (NCI-H460; first compound 20 µM): 0.0555
- relative viability (NCI-H2342; first compound 0.2 µM): 1.25
- relative viability (NCI-H2342; first compound 0.6325 µM): 0.952
- relative viability (NCI-H2342; first compound 2 µM): 1.07
- relative viability (NCI-H2342; first compound 6.325 µM): 0.952
- relative viability (NCI-H2342; first compound 20 µM): 1.11
- relative viability (NCI-H2405; first compound 0.2 µM): 1.05
- relative viability (NCI-H2405; first compound 0.6325 µM): 1.05
- relative viability (NCI-H2405; first compound 2 µM): 1
- relative viability (NCI-H2405; first compound 6.325 µM): 0.741
- relative viability (NCI-H2405; first compound 20 µM): 0.866
- relative viability (PC-14; first compound 0.2 µM): 0.931
- relative viability (PC-14; first compound 0.6325 µM): 0.942
- relative viability (PC-14; first compound 2 µM): 0.908
- relative viability (PC-14; first compound 6.325 µM): 0.784
- relative viability (PC-14; first compound 20 µM): 0.629

— the supplement of paper PMC10307832
